Non-standard residues stand in square brackets, D forms with d. Residues, ends and D or L forms follow the SMILES beside them. Dmt = Cc1cc(O)cc(C)c1C[C@H](N)C(=O)O; Tic = O=C(O)[C@@H]1Cc2ccccc2CN1
Tests used:
[1] = target: T1, Delta-type opioid receptor (Homo sapiens, UniProt P41143); assay: Compound was tested for its ability to block the effect of selective delta opioid agonist SNC-80 in the functional assay
[2] = target: T1, Delta-type opioid receptor; assay: Compound was evaluated for binding affinity towards Opioid receptor delta 1 by displacing 125 I-deltorphin II
Mu-type opioid receptor = Mu-type opioid receptor (Homo sapiens, UniProt P35372); assay: Compound was evaluated for binding affinity towards Opioid receptor mu 1 by displacing 125 I-FK-33824
Sequence of Mu-type opioid receptor (P35372 whole entry): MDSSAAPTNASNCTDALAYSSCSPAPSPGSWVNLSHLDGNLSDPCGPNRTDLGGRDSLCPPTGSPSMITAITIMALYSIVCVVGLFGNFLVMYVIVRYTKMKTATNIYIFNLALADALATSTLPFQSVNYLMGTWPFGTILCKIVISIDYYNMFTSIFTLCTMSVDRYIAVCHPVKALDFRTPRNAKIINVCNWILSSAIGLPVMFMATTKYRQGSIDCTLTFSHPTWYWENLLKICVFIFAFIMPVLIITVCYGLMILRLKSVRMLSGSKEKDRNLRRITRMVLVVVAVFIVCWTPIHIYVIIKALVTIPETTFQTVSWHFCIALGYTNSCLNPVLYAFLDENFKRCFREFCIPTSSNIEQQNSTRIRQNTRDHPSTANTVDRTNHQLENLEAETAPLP

[3] = target: Opioid receptors; mu & delta (Homo sapiens) (UniProt P41143+P35372); assay: Ratio of binding affinity of compound to mu receptor compared to that of delta receptor (Mu/Delta); type: protein assay
Sequence of Opioid receptors; mu & delta (Homo sapiens) (P35372 whole entry, looked up): as the sequence (P35372 whole entry) above
Sequence of Opioid receptors; mu & delta (Homo sapiens) (P41143 whole entry, looked up): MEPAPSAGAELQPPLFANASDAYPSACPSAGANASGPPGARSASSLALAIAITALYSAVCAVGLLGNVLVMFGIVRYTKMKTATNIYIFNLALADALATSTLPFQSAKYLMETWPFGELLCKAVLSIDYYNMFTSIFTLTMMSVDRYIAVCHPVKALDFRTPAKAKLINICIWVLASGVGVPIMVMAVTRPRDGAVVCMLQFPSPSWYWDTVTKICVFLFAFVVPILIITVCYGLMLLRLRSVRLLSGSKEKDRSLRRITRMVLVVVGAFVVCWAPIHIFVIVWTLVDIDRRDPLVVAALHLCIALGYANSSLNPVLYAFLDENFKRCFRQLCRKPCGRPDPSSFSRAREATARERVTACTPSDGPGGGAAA

[4] = target: Kappa-type opioid receptor (Homo sapiens, UniProt P41145); assay: Compound was evaluated for binding affinity towards Opioid receptor kappa 1 by displacing 125 I-DPDYN
Sequence of Kappa-type opioid receptor (P41145 whole entry): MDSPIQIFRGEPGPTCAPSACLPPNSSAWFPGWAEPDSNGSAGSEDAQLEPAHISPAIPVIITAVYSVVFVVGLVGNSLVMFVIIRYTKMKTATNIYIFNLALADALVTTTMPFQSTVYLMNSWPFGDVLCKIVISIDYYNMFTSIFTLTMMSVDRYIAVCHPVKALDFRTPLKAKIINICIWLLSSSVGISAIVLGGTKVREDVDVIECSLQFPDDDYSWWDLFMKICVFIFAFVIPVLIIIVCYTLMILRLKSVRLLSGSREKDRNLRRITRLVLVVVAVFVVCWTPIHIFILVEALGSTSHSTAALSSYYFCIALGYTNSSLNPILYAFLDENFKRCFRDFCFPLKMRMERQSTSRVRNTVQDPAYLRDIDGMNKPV

[5] = target: T1, Delta-type opioid receptor; assay: Effective concentration for agonistic activity towards delta opioid receptor was determined by [35S]GTP-gamma-S functional assay

T1 sequence (P41143 whole entry): as the sequence (P41143 whole entry, looked up) above

SMILES | Ke [1] [nM] | IC50 [2] [nM] | IC50 (Mu-type opioid receptor) [nM] | Ratio [3] | IC50 [4] [nM] | EC50 [5] [nM]
COc1ccc(-c2ccc3c(c2)CN(C(=O)C(N)Cc2c(C)cc(O)cc2C)[C@H](C(=O)O)C3)cc1 (stereo partly drawn) | 38.6 | 4.9 | 2650 | 546 | > 10000 | –
Cc1cc(O)cc(C)c1CC(N)C(=O)N1Cc2cc(O)ccc2C[C@H]1C(=O)O (stereo partly drawn) | – | 236 | 2160 | 9.2 | 9290 | –
Cc1cc(O)cc(C)c1C[C@H](N)C(=O)N1Cc2c(cc(Br)c(O)c2Br)C[C@H]1C(=O)O | – | 1080 | 1240 | 1.1 | > 10000 | –
Cc1cc(O)cc(C)c1C[C@@H](N)C(=O)N1Cc2c(cc(Br)c(O)c2Br)C[C@H]1C(=O)O | – | > 10000 | 8130 | – | – | –
Cc1cc(O)cc(C)c1C[C@@H](N)C(=O)N1Cc2cc(-c3ccc(F)cc3)ccc2C[C@H]1C(=O)O | – | 81.7 | – | – | > 10000 | –
COc1ccc(-c2cc3c(cc2OC)CN(C(=O)C(N)Cc2c(C)cc(O)cc2C)[C@H](C(=O)O)C3)cc1 (stereo partly drawn) | – | 1520 | 4640 | 3.1 | > 10000 | –
Cc1cc(O)cc(C)c1CC(N)C(=O)N1Cc2cc(-c3ccsc3)ccc2C[C@H]1C(=O)O (stereo partly drawn) | – | 13.5 | 142 | 10.5 | 2730 | –
COc1ccc(-c2ccc3c(c2)CN(C(=O)[C@@H](N)Cc2c(C)cc(O)cc2C)[C@H](C(=O)O)C3)cc1 | – | 5.8 | 1140 | 211 | > 10000 | –
Cc1cc(O)cc(C)c1C[C@H](N)C(=O)N1Cc2ccccc2C[C@H]1C(=O)O (H-[Dmt]-[Tic]-OH) | 5.3 | 1.6 | 894 | 558 | 37500 | –
COc1c(Br)cc2c(c1Br)CN(C(=O)[C@@H](N)Cc1c(C)cc(O)cc1C)[C@H](C(=O)O)C2 | – | 2.5 | 1670 | 505 | > 10000 | 28
COc1ccc2c(c1)CN(C(=O)[C@@H](N)Cc1c(C)cc(O)cc1C)[C@H](C(=O)O)C2 | – | 12.1 | 2870 | 237 | 9440 | –
Cc1cc(O)cc(C)c1CC(N)C(=O)N1Cc2cc(-c3cc4ccccc4o3)ccc2C[C@H]1C(=O)O (stereo partly drawn) | – | 52.7 | 2440 | – | > 10000 | –
Cc1cc(O)cc(C)c1C[C@H](N)C(=O)N1Cc2cc(-c3ccccc3)ccc2C[C@H]1C(=O)O | – | 13.2 | 635 | 48.1 | 5740 | –
COc1cc2c(cc1-c1ccc(F)cc1)C[C@@H](C(=O)O)N(C(=O)C(N)Cc1c(C)cc(O)cc1C)C2 (stereo partly drawn) | – | 1160 | 7220 | 6.2 | > 10000 | –
COc1cc2c(cc1-c1ccccc1)C[C@@H](C(=O)O)N(C(=O)C(N)Cc1c(C)cc(O)cc1C)C2 (stereo partly drawn) | – | 2540 | > 10000 | – | > 10000 | –
COc1c(Br)cc2c(c1Br)CN(C(=O)[C@H](N)Cc1c(C)cc(O)cc1C)[C@H](C(=O)O)C2 | – | 571 | 8240 | 14.4 | – | –
Cc1cc(O)cc(C)c1C[C@H](N)C(=O)N1Cc2cc(-c3ccc(F)cc3)ccc2C[C@H]1C(=O)O | 11.5 | 3.8 | 587 | 155 | 7560 | –
COc1ccc2c(c1)CN(C(=O)C(N)Cc1c(C)cc(O)cc1C)[C@H](C(=O)O)C2 (stereo partly drawn) | – | 10.9 | 2280 | 211 | 9000 | –
Cc1cc(O)cc(C)c1C[C@@H](N)C(=O)N1Cc2cc(-c3ccccc3)ccc2C[C@H]1C(=O)O | – | 122 | 1940 | 15.9 | > 10000 | –
